Data: US11203598B2, “Compounds for repressing cancer cell growth” (Institute For Cancer Research, priority 2018, dated 2021)

How the values were obtained:
[1] = system: autophagic vacuoles in DLD-1 cells; experiment: CYTO-ID autophagy detection kit; assay type: cell-based, human; conditions: 50 μM, 24 hours, versus DMSO
[2] = target: T1, R175H mutant p53 in HCT116 R175H p53 cells (Homo sapiens, UniProt P04637, R175H); experiment: cycloheximide chase assay; assay type: cell-based; conditions: 100 μM, 24 hours, then cycloheximide
T1 construct: V5 (only from the vector name pLenti6/V5); host or cells: HCT116 p53-/- cells, lentivirus infection, blasticidin-selected pooled clones
Description: (§1) As mutant p53 can acquire a gain-of-function activity, targeting mutant p53 for degradation has been explored as a therapeutic strategy. To investigate the capability of CB002 to impact on mutant p53 protein expression, Western blot analysis was used. […] To confirm these findings, a cycloheximide chase assay was performed. Cells were treated with vehicle control or CB002 for a period of 24 hours. Subsequently, 100 μg/mL cycloheximide was added to the wells and protein lysates were collected at different time points between 0-10 hours. […] Referring to FIG. 6, experiments with SW480 cells (Panels A and B) and analysis of DLD-1 colorectal cancer cells (Panel C) are shown. Cells were treated for a 24 hour period with DMSO, CB002 or positive control followed by 100 μg/mL of cycloheximide addition, and protein stability was evaluated in a time course ranging from 0-10 hours. Histone deacetylase inhibitor, SAHA and Hsp90 inhibitor Geldanamycin (1 μM GA) were used as positive controls.
Referring to FIG. 7, CB002 reduced the protein expression of the exogenous R175H mutant in HCT116 p53-null cells and not the HCT116 wild-type p53 cells (Panel A). HCT116 R175H p53 cells were treated for 24 hours with DMSO or CB002 followed by 100 μg/mL cycloheximide addition. Protein stability was evaluated from 0-10 hours (Panel B). […]

[3] = system: SW480 NOXA stable knockdown cells; experiment: apoptosis assay, sub-G1 analysis; assay type: cell-based, human; conditions: 96 μM, 48 hours, NOXA stably knocked down; DMSO 3.93%
Description: A NOXA shRNA plasmid construct was amplified according to the manufacturer's recommendation (TRC Lentiviral Human PMAIP1 shRNA, Dharmacon). Plasmid DNA was isolated using the PureLink® HiPure Plasmid Filter Maxiprep Kit (Invitrogen) according to the manufacturer's instructions. Lentivirus production was performed by transfecting HEK293T cells at a density of 8×10^6 cells per 10 cm dish with 1.6 μg pMD2.G envelope plasmid, 3.2 μg psPAX2 packaging vector, 3.2 μg plasmid DNA, and 24 μL of Lipofectamine® Transfection reagent 2000 (Life Technologies) in a total volume of reaction of 1 mL of antibiotic free DMEM media for a period of 6-10 hours. Media was then replaced with antibiotic free DMEM. Lentiviral particles were collected between 48-72 hours. SW480 cells ([…] in a 12-well plate) were infected 1:1 (virus containing media: antibiotic free DMEM media, total volume 1 mL) for a period of 24 hours. Then, media was replaced with DMEM complete media for an additional 24 hours. At this point, cells were split and seeded (20% confluent) for selection in a 10 cm dish with puromycin (2.5 μg/mL)-containing complete DMEM media and cultured for 10 days. Puromycin containing complete media was replaced every 2-3 days. Puromycin-resistant clones were screened for knockdown of NOXA by Western blot analysis with NOXA antibody.
Apoptotic cells were quantified by sub-G1 analysis. […]

[4] = system: p53 reporter (PG13-luc) in DLD-1 cells; experiment: luciferase-based p53-reporter activity assay; assay type: cell-based, human; conditions: 3 and 24 hours
Description: (§2) High-throughput screening was performed using a non-invasive bioluminescence imaging in human colorectal cancer cell lines that stably express a p53-regulated luciferase reporter. Cells were seeded in 96-well plates (Greiner Bio-One) at a density of 1×10^4 cells per well. p53 transcriptional activity was imaged using an IVIS imaging system for a period of 3-4 hours.
(§3) Cell-based screening of p53 transcriptional activity for small molecule CB002 was accomplished using noninvasive bioluminescence imaging in human colorectal cancer cell lines SW480, DLD-1, DLD-1 p73^−/−, HCT116, and HCT116 p53^−/−. These cell lines stably express a p53 reporter, PG13-luc. Cells were seeded in opaque 96-well culture at a density of 5×10^4 cells/well. The cells were treated with CB002 at ranging doses with DMSO controls. Bioluminescence in cells was imaged for p53 transcriptional activity at 2 hours and 24 hours using IVIS imaging system (Xenogen).
(§4) In order to identify small molecules that could restore the p53 signaling pathway, 50,000 small molecules from the Chembridge Library were screened using a firefly luciferase human p53 reporter assay system. SW480 colorectal cancer cells that stably express the human p53 reporter were treated with compounds at various concentrations from 0-100 μM for 2 and 24 hours. […] To further validate the effects of CB002, the screening was expanded by testing effects on p53-dependent reporter activity in DLD-1, wild-type HCT116, and p53-null colorectal cancer HCT116 cell lines. […] Referring to FIG. 1, representative images of luciferase-based p53-reporter activity assays are shown at 3 hours (Panel A). Quantification of the luciferase-based p53-reporter activity assays in three different cell lines incubated from 3-24 hours with CB002 are shown (Panels B-D). p53-reporter activity assays are shown at 2 hours for HCT116 p53-null cells (Panel E).

[5] = system: p53 reporter (PG13-luc) in HCT116 p53-null cells; experiment: luciferase-based p53-reporter activity assay; assay type: cell-based, human; conditions: 3 and 24 hours
Description: as §2, §3, §4

[6] = system: p53 reporter (PG13-luc) in wild-type HCT116 cells; experiment: luciferase-based p53-reporter activity assay; assay type: cell-based, human; conditions: 3 and 24 hours
Description: as §2, §3, §4

[7] = target: T2, mutant p53 in DLD-1 cells (Homo sapiens, UniProt P04637, S241F); experiment: cycloheximide chase assay; assay type: cell-based; conditions: 24 hours treatment, then 100 μg/mL cycloheximide, 0-10 hours
T2 construct: endogenous in cells; host or cells: DLD-1 colorectal cancer cells
Description: as §1

[8] = target: T3, mutant p53 in SW480 cells (Homo sapiens, UniProt P04637, P309S/R273H); experiment: cycloheximide chase assay; assay type: cell-based; conditions: 24 hours treatment, then 100 μg/mL cycloheximide, 0-10 hours
T3 construct: endogenous in cells; host or cells: SW480 colorectal cancer cells
Description: as §1

Question: How did the autophagic vacuole-specific staining [1] turn out when `Cn1c(=O)c2[nH]c(Nc3ccccc3)nc2n(C)c1=O` [CB002, 8-anilino-1,3-dimethyl-3,7-dihydro-1H-purine-2,6-dione] was run?
Answer: increase in autophagic vacuole-specific staining

Question: What about the “stability of mutant p53” value [2] of the same molecule?
Answer: decreased the stability of mutant p53

Question: And the sub-G1 content [3]?
Answer: 3.7%

Question: What about the p53 reporter activity [4] of the same molecule?
Answer: induced in a dose-dependent manner

Question: And the p53 reporter activity [5]?
Answer: induced in a dose-dependent manner

Question: And the p53 reporter activity [6]?
Answer: induced in a dose-dependent manner

Question: What about the “mutant p53 stability” value [7] of the same molecule?
Answer: did not affect mutant p53 stability

Question: And the “mutant p53 stability” value [8]?
Answer: did not affect mutant p53 stability
